This assay deals with neurons that have low expression of ATG7. To be noted: pretreatment of neurons with lentiviral shRNA knock-down of ATG7; neurotoxin MPP+.

Source text: A lentiviral shRNA was used to knock-down the expression of ATG7, a component of the autophagy system.

In the case of `CN1CCCC1c1cccnc1` (stereo not shown) [nicotine], the “prevention of MPP+ induced cellular damage” value is listed as “prevent MPP+ induced cellular damage”.

The values above are taken from patent US10182994B2, “Nanoparticulate complex of nicotine and cerium oxide and use thereof” (priority 2014, dated 2019).
